Assay results published in patent US20250288704A1, “CXCR4-LIGANDS FOR DIAGNOSTIC AND THERAPEUTIC USE AND PRECURSORS THEREOF” (priority 2021, published 2025).
Where two headings read alike, the source gives them in different places. Blank lines part the entries; values can stand above or below the compound they belong to. Positions of bridges follow the written chain, without caps; N, C: chain ends. Non-standard residues stand in square brackets, D forms with d. Residues, ends and D or L forms follow the SMILES beside them. Groups on a side chain read outwards from the residue. Chains are numbered I, II in the order given. *: point of attachment. DOTA = O=C(O)CN1CCN(CC(=O)O)CCN(CC(=O)*)CCN(CC(=O)O)CC1; 2Nal = N[C@@H](Cc1ccc2ccccc2c1)C(=O)O; dCit = NC(=O)NCCC[C@@H](N)C(=O)O; dNMeOrn = CN[C@H](CCCN)C(=O)O; 4Amb = NCc1ccc(C(=O)O)cc1; Mercaptoacetyl = O=C(CS)*; 4Abz = Nc1ccc(C(=O)O)cc1; dDap = NC[C@@H](N)C(=O)O

How the values were obtained:
CXCR4 = CXCR4 (Homo sapiens, UniProt P61073); experiment: Determination of IC50: competition with 125I-Fc-131 on CXCR4-positive Jurkat cells; assay type: binding; design: CXCR4-positive Jurkat T lymphocyte cells were grown in Gibco's RPMI 1640 GlutaMAX medium; endogenous in cells; host or cells: Jurkat T lymphocyte cells (whole cells in suspension, 400.000 per tube);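 note: test compound at 10^−5 to 10^−11 M competed for 2 h at 8 °C with the radioligand on 400,000 cells per well, bound versus free activity measured by γ-counting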
Chain of CXCR4 (P61073 whole entry): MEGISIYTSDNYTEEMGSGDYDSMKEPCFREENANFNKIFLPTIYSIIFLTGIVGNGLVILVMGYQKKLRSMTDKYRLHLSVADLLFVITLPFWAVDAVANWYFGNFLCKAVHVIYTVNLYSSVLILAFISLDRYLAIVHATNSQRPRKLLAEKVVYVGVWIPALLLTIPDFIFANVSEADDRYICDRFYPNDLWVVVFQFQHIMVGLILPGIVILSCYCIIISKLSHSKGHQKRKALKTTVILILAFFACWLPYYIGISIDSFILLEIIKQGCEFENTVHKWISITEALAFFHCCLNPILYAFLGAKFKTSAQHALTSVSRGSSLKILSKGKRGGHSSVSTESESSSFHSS

[1] = Octanol/PBS partition coefficient (logD7.4); assay type: physicochemical; conditions: n-octanol/PBS pH 7.4, radiolabeled compound
Experimental: The tubes were vortexed at maximum speed for 3 min to ensure equilibrium before centrifugation at 15.000×g for 5 min on a Biofuge 15 from Heraeus Holding GmbH (Osterode, Germany). An aliquot of 100 μL of each fraction was measured in the γ-counter and the log D7.4 calculated as follows: […]

[2] = system: CXCR4-expressing Chem_1 cells; experiment: Determination of internalization, dual tracer with 125I-Fc-131; assay type: cell-based; conditions: for Cell-bound [%] / Internalized [%]: of total cellular activity
Experimental: CXCR4-expressing Chem_1 cells were grown in DMEM-F12 medium supplemented with 10 vol % FBS, 1 vol % NEA, 1 vol % PenStrep and 1 vol % HEPES (1.00 M). Cells were maintained in a 5% CO2 atmosphere at 37° C.
For in vitro experiments, cells were harvested by removal of the medium and incubation of the cells with trypsine/EDTA (0.05%/0.02%; w/v) for 30 in at 37° C.
Each well (n=3 for every time point) was either treated with 25 μL DMEM-F12 (+5 wt % BSA) or 25 μL of an AMD3100 stock (1 mM in H2O) for blockage of the receptors.
The experiment was stopped by placing the well-plate on ice and removing the supernatant. The cells were washed with 250 μL cold HBSS and the both fractions for each well combined, comprising the amount of unbound radioligand.
The supernatant was removed, the cells washed with cold HBSS and the respective fractions combined to obtain the amount of surface-bound radioligand.
The cells were then incubated with 300 μL NaOH (1.00 M in H2O) for at least 30 at r.t. before the supernatant was removed. The well was washed with another 300 μL NaOH and the fractions combined that contain the amount of internalized radioligand.
The three different fractions were subjected to activity measurement in the γ-counter, measuring the activity of the radionuclide used for the labeling of the peptide under investigation first. […] Data was corrected for non-specific internalization and referred to the specific internalization of the standard ligand

[3] = unlabeled or cold (natGa/natLu) compound vs 125I-Fc-131, Jurkat cells, read-out: IC50

IC50 (CXCR4; [3]): 12.1 ± 2.42 nM
Compound: C[C@@H](NC(=O)[C@@H](CCCNC(=N)N)NC(=O)[C@@H](CN)NC(=O)CN1CCN(CC(=O)O)CCN(CC(=O)O)CCN(CC(=O)O)CC1)C(=O)NCc1ccc(C(=O)NCCC[C@@H]2C(=O)N[C@@H](CCCNC(=N)N)C(=O)N[C@@H](Cc3ccc4ccccc4c3)C(=O)NCC(=O)N[C@H](Cc3ccc(O)cc3)C(=O)N2C)cc1 [CXCR4-DOTA-1] (cyclo([dY][dNMeOrn]([4Amb-dA-dR-dDap-DOTA])R[2Nal]G))

Compound: C[C@@H](NC(=O)[C@@H](CCCNC(=N)N)NC(=O)[C@@H](CCCNC(=N)N)NC(=O)[C@@H](CO)NC(=O)[C@@H](CO)NC(=O)[C@@H](CO)NC(=O)CS)C(=O)Nc1ccc(C(=O)NCCC[C@@H]2C(=O)N[C@@H](CCCNC(=N)N)C(=O)N[C@@H](Cc3ccc4ccccc4c3)C(=O)NCC(=O)N[C@H](Cc3ccc(O)cc3)C(=O)N2C)cc1 [Tc-CXCR4-3] (I: Mercaptoacetyl-[dS][dS][dS][dR][dR][dA][4Abz] / II: cyclo([dY][dNMeOrn]R[2Nal]G); amide I:C-II:2)
IC50 (CXCR4): 184 ± 25.3 nM

IC50 (CXCR4; [3]): 2.95 ± 0.59 nM
Compound: C[C@@H](NC(=O)[C@@H](CCCNC(=N)N)NC(=O)[C@@H](CN)NC(=O)CN1CCN(CC(=O)O)CCN(CC(=O)O)CCN(CC(=O)O)CC1)C(=O)NCc1ccc(C(=O)NCCC[C@@H]2C(=O)N[C@@H](CCCNC(=N)N)C(=O)N[C@@H](Cc3ccc4ccccc4c3)C(=O)NCC(=O)N[C@H](Cc3ccc(O)cc3)C(=O)N2C)cc1 [CXCR4-DOTA-1 [Ga]] (cyclo([dY][dNMeOrn]([4Amb-dA-dR-dDap-DOTA])R[2Nal]G))

Compound: C[C@@H](NC(=O)[C@@H](CCCNC(N)=O)NC(=O)[C@@H](CN)NC(=O)CN1CCN(CC(=O)O)CCN(CC(=O)O)CCN(CC(=O)O)CC1)C(=O)Nc1ccc(C(=O)NCCC[C@@H]2C(=O)N[C@@H](CCCNC(=N)N)C(=O)N[C@@H](Cc3ccc4ccccc4c3)C(=O)NCC(=O)N[C@H](Cc3ccc(O)cc3)C(=O)N2C)cc1 [CXCR4-DOTA-5 [Lu]] (cyclo([dY][dNMeOrn]([4Abz-dA-dCit-dDap-DOTA])R[2Nal]G))
logD7.4 [1]: −3.58 ± 0.08 (8)
Internalized in relation to 125I-Fc-131 [%] ([2]; 15 min): 97.3 ± 8.78%
Cell-bound [%] ([2]; 15 min): 3.47 ± 0.46%
Internalized [%] ([2]; 15 min): 3.52 ± 0.31%
Internalized in relation to 125I-Fc-131 [%] ([2]; 30 min): 151 ± 4.51%
Cell-bound [%] ([2]; 30 min): 4.66 ± 0.45%
Internalized [%] ([2]; 30 min): 5.80 ± 0.14%
Internalized in relation to 125I-Fc-131 [%] ([2]; 60 min): 151 ± 15.9%
Cell-bound [%] ([2]; 60 min): 5.21 ± 0.48%
Internalized [%] ([2]; 60 min): 6.94 ± 0.59%
Internalized in relation to 125I-Fc-131 [%] ([2]; 120 min): 190 ± 13.0%
Internalization [% Fc-131] 2 h ([2]; 2 h, 177Lu-labeled): 190 % Fc-131
Cell-bound [%] ([2]; 120 min): 3.94 ± 0.45%
Internalized [%] ([2]; 120 min): 9.65 ± 0.16%

Compound: C[C@@H](NC(=O)[C@@H](CCCNC(=N)N)NC(=O)[C@@H](Cc1c[nH]cn1)NC(=O)[C@@H](CNC(=O)c1ccc([Si](F)(C(C)(C)C)C(C)(C)C)cc1)NC(=O)CC[C@H](C(=O)O)N1CCN(CC(=O)O)CCN(CC(=O)O)CCN(CC(=O)O)CC1)C(=O)Nc1ccc(C(=O)NCCC[C@@H]2C(=O)N[C@@H](CCCNC(=N)N)C(=O)N[C@@H](Cc3ccc4ccccc4c3)C(=O)NCC(=O)N[C@H](Cc3ccc(O)cc3)C(=O)N2C)cc1 [CXCR4-SiFA-2 [Ga]]
logD7.4 [1]: 0.39 ± 0.07 (8)
Internalized in relation to 125I-Fc-131 [%] ([2]; 30 min): 500 ± 23.1%
Cell-bound [%] ([2]; 30 min): 0.08 ± 0.23%
Internalized [%] ([2]; 30 min): 12.5 ± 0.46%
Internalization [% Fc-131] ([2]; 90 min): 562 % Fc-131
Internalized in relation to 125I-Fc-131 [%] ([2]; 90 min): 562 ± 33.0%
Cell-bound [%] ([2]; 90 min): 0.43 ± 0.26%
Internalized [%] ([2]; 90 min): 16.5 ± 0.94%
